This note sets out measurements from the METLIN SMRT retention time set (Domingo-Almenara et al. 2019).

This data set can be described thus: gradient 5% acetonitrile 3 min, to 50% in 2 min, to 85% in 15 min, held 3 min, 100 µL/min. To be noted: column: Zorbax Extend-C18 2.1 x 50 mm; eluents: water / acetonitrile, 0.1% formic acid. A digest of the protocol: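 In both positive and negative ionization mode, a quadrupole time-of-flight mass spectrometer coupled to HPLC analyzed pure standards run in mixtures of ~100 molecules. The Zorbax Extend-C18 column (2.1 × 50 mm, 1.8 μm) was operated at 100 μL/min with water and acetonitrile, each containing 0.1% formic acid. The dead volume was 40 μL and the dwell volume 900 μL. Retention time came from adduct peaks that were computationally picked and individually inspected by hand.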
The compound `CCCN1CCN(C(=O)Cc2ccc3nc(NC(C)=O)sc3c2)CC1` showed an RP-LC retention time of 578 s.
The compound `CCOc1ccccc1NC(=O)N1CCC(n2cnc3cc(Cl)ccc3c2=O)CC1` displayed an RP-LC retention time of 935 s.
Consider `Cn1c(=O)c(=O)n(C)c2cc(Oc3ccccc3)c(NC(=O)C3CCCCC3)cc21`, for which the RP-LC retention time is 870 s.
Consider `Cc1nnc(-c2nnc(NC3CCCCCC3)c3ccccc23)o1`, for which the RP-LC retention time came out at 766 s.
For the compound `CC(C)Oc1ccc(-c2noc(Cn3c(=O)n(-c4ccccc4)c(=O)c4sccc43)n2)cc1`, the RP-LC retention time is 1100 s.
In turn, `CC1(C)CC(=O)c2cn(-c3ccc(Cl)cc3)c(=O)c(C(=O)N3CCCC3)c2C1` came in with an RP-LC retention time of 786 s.
`CCN1c2cc(Cl)ccc2C(=O)NC12CCN(C(=O)Nc1ccc(OC)cc1)CC2` yielded an RP-LC retention time of 895 s.
The value for `COc1ccc(-c2csc3c(=O)n(Cc4ccc(F)cc4)cnc23)cc1` was 1050 s; that for `Cn1nccc1C(=O)NC1CCCN(c2cc(N3CCCC3)ncn2)C1` (stereo not given) was 590 s.
For `Cc1sc(-c2nnc(C3CC3)o2)cc1NC(=O)c1ccnn1C`, the RP-LC retention time came out at 796 s.
The figure for `CCOc1ccc(-c2ccc(=O)n(CCNC(=O)c3cc(C)oc3C)n2)cc1` is 765 s; for `CCCN1CCN(c2cc(C(=O)O)c3cc(NS(=O)(=O)c4ccccc4C)ccc3n2)CC1` it is 605 s; for `NNC(=O)c1nnsc1-c1csnn1` it is 657 s.
With `COC(=O)c1ccc2c(=O)n(CCc3ccccc3)c(N3CCSCC3)nc2c1`, the RP-LC retention time came out at 1150 s.
The value for `O=C(NC1CCCN(c2cc(-c3ccncc3)[nH]n2)C1)c1cccc(F)c1` (stereo not given) was 593 s; that for `CCOc1ccccc1NC(=O)N1CCCC(C)(C(=O)NCc2ccc(F)cc2)C1` (stereo not given) was 983 s.
`CCN(CC)c1nc2ccsc2c(=O)n1CC(=O)NCc1ccc(F)cc1F` returned an RP-LC retention time of 868 s.
As for `C=CCNC(=O)c1cnn(-c2ccc(-c3nc(C(C)(C)C)no3)cn2)c1C`, the RP-LC retention time is 759 s.
The value for `CCCn1ccc2sc(C)c(C(=O)NCCN3CCCCCC3)c2c1=O` was 657 s; that for `CN1CCC(Oc2ncccc2NS(=O)(=O)N(C)C)CC1` was 575 s; that for `Cc1cccc(Cl)c1NC(=O)/C=C/c1ccccc1` was 850 s.
Consider `COc1cc2c(cc1/C=C/[N+](=O)[O-])OC(C)C2` (stereo not given), for which the RP-LC retention time was determined as 908 s.
In turn, `CCc1noc(-c2nc(-c3ccc(F)c(F)c3)no2)n1` returned an RP-LC retention time of 1090 s.
In turn, `COc1cc(C(=O)N2CCCC(C)(C(=O)NCc3ccc(C)cc3)C2)cc(OC)c1OC` (stereo not given) displayed an RP-LC retention time of 820 s.
Compound `COc1ccccc1OCC(=O)N1CCN(c2nc(CN3CCOCC3)cs2)CC1` showed an RP-LC retention time of 613 s.
Turning to `Cc1cccc(-c2noc(Cn3c(=O)n(-c4ccccc4F)c(=O)c4sccc43)n2)c1`, the RP-LC retention time came out at 1030 s.
For the compound `Cc1c(CCC(=O)N[C@H](C)C(=O)O)c(=O)oc2c(C)c(O)ccc12`, the RP-LC retention time worked out at 618 s.
Compound `Cc1csc(-n2nc(C)c(CC(=O)Nc3ccccc3Cl)c2C)n1` showed an RP-LC retention time of 1010 s.
Compound `O=C(C1CC(=O)N(c2n[nH]c3ccccc23)C1)N1CCN(CCc2ccccn2)CC1` (stereo not given) had an RP-LC retention time of 551 s.
In the case of `COC(=O)c1[nH]c2c(c1C)C(=O)CC(c1cccc(OC)c1)C2` (stereo not given), the RP-LC retention time worked out at 838 s.
With `COC(=O)Cn1c(-c2ccccc2)cnc1SCC(=O)Nc1nccs1`, the RP-LC retention time came to 671 s.
As to `Cc1cc(N2CCN(C)CC2)nc2ccc(NC(=O)NCc3ccc(F)cc3)cc12`, the RP-LC retention time came to 556 s.
`Cc1cccc(NC(=O)Nc2ccc(C)n(CC(=O)O)c2=O)c1`: the RP-LC retention time worked out at 721 s.
The figure for `CCCCNC(=O)c1sc2ncn(CC(=O)N3CC(C)CC(C)C3)c(=O)c2c1C` (stereo not given) is 890 s.
`Cn1cnc(S(=O)(=O)N2CCC(Cc3nncn3Cc3ccccc3)C2)c1` (stereo not given): the RP-LC retention time was found to be 614 s.
Compound `CCCOc1ccc(CNC(=O)C2CCCN(c3ncnc4c3oc3ccccc34)C2)cc1` (stereo not given) returned an RP-LC retention time of 889 s.
The value for `O=C([C@@H]1C[C@H](F)CN1S(=O)(=O)c1ccc(F)cc1F)N1CCOCC1` was 692 s; that for `N#CCc1cnc2ccccc2n1` was 720 s.
For `CCN1C(=O)c2cccc3c(NC(=O)Cc4cccs4)ccc1c23`, the RP-LC retention time is 718 s.
The figure for `CCOc1ccccc1CN1C(=O)C2(CCOCC2)CC1c1nnnn1C(C)(C)C` (stereo not given) is 799 s.
Regarding `Cc1ccc(/C=C/c2nc(-c3ccc4oc(C)nc4c3)no2)o1`, the RP-LC retention time worked out at 1130 s.
In turn, `CCc1nc2cc(CNC(=O)Cc3ccccc3C)ccc2n1C` had an RP-LC retention time of 618 s.
In the case of `CCNC(=O)C1CCCN(c2nc3ncn(CC(=O)NCc4ccc(F)cc4)c(=O)c3s2)C1` (stereo not given), the RP-LC retention time stood at 648 s.
`CCOC(=O)c1nc(N(C)c2cccc(C)c2)c2ccccc2n1` returned an RP-LC retention time of 982 s.
The value for `CN(C(=O)CN1C(=O)NC2(CCC(C(C)(C)C)CC2)C1=O)c1ccccc1` (stereo not given) was 979 s; that for `O=C(c1ccsc1)N1CC(n2cc(C(=O)N3CCOCC3)nn2)C1` was 609 s; that for `CC(C)N1C(=O)c2cccnc2Sc2cc(NC(=O)c3c(F)cccc3F)ccc21` was 865 s.
For `COc1ccc(-c2nc(C)cc(C)c2CNC(=O)C2CCC2)cc1`, the RP-LC retention time is 584 s.
The compound `COc1cccc(-n2c(N3CCCC(C(=O)NCC(C)C)C3)nc3ccsc3c2=O)c1` (stereo not given) came in with an RP-LC retention time of 818 s.
Regarding `O=C(NCCc1csc(C2CCN(C(=O)C3CCCCC3)CC2)n1)C1CC1`, the RP-LC retention time came out at 734 s.
Compound `Cc1sc(-c2cc(C(F)(F)F)on2)cc1S(=O)(=O)NCc1ccc(N(C)C)cc1` showed an RP-LC retention time of 982 s.
Regarding `Cc1noc2ncn(CC(=O)NCc3ccccc3F)c(=O)c12`, the RP-LC retention time amounted to 705 s.
The figure for `O=C(CSc1ccc(NC(=O)c2cccs2)nn1)Nc1cccc(Cl)c1Cl` is 942 s; for `CCOC(=O)Cc1cc(=O)c2cc(C)ccc2[nH]1` it is 695 s; for `O=C(CCc1c(-c2ccc(F)cc2)nc2ccccn12)NCc1ccc2c(c1)OCO2` it is 655 s.
On to `O=c1c2sccc2n(Cc2nc(-c3ccc(F)cc3)no2)c(=O)n1Cc1ccc(F)cc1`, for which the RP-LC retention time stood at 1100 s.
`COc1ccccc1NC(=O)N1CCC(c2nnc(-c3ccccc3OC)s2)CC1`: the RP-LC retention time amounted to 825 s.
The figure for `Cc1noc(C)c1-c1ccc(S(=O)(=O)NC2CCCC2)cc1` is 911 s.
Take `Cc1nn(-c2ccccc2)c(C)c1S(=O)(=O)N1CCC(C(=O)NCc2ccc(Cl)cc2)CC1`: the RP-LC retention time turned out to be 966 s.
The compound `CC(=O)Nc1cc(C(=O)NCc2ccc(OC(C)C)cc2)c2ccc(C)nc2c1` registered an RP-LC retention time of 640 s.
Compound `Cc1ccc(C)c(Cn2nc3ccc(S(=O)(=O)N4CCc5ccccc5C4)cn3c2=O)c1` came in with an RP-LC retention time of 1100 s.
The compound `Cc1ccc(N2C(=O)C3N=NN(Cc4nc(-c5cccc(Br)c5)no4)C3C2=O)cc1C` (stereo not given) yielded an RP-LC retention time of 1120 s.
The compound `CCOC(=O)c1[nH]c(C)c(C(=O)N2CCC(CC(=O)NC3CCCC3)CC2)c1C` returned an RP-LC retention time of 696 s.
The value for `CC(C)Oc1ccc(-c2noc(Cn3c(=O)n(C(C)C)c(=O)c4ccccc43)n2)cc1` was 1140 s.
As for `Fc1ccccc1-c1noc(-c2nc(-c3cnccn3)no2)n1`, the RP-LC retention time stood at 877 s.
On to `CC(C)c1cccc(NC(=O)Cn2ccc3sccc3c2=O)c1`, for which the RP-LC retention time is 878 s.
Turning to `CCN1C(=O)c2cccnc2Sc2cc(NC(=O)c3cccc(C(F)(F)F)c3)ccc21`, the RP-LC retention time came out at 957 s.
The figure for `CCOC(=O)c1c(C)[nH]c(C(=O)N2CCCC(C(=O)NCCCN3CCN(CC)CC3)C2)c1C` (stereo not given) is 579 s.
Take `CN(C)C(=O)CN1CCN(c2cc(C(=O)O)c3cc(NC(=O)c4ccccc4F)ccc3n2)CC1`: the RP-LC retention time was 580 s.
Consider `Cc1cc(C)n(-c2nc(CC(=O)NCc3ccc(F)cc3)cs2)n1`, for which the RP-LC retention time is 854 s.
The figure for `Cn1nc(-c2nc(C3CC3)no2)c2c1CCN(C(=O)c1cc(F)ccc1Cl)C2` is 842 s; for `CCN1c2ccccc2C(=O)NC12CCN(C(=O)NC1CCCCC1)CC2` it is 771 s; for `Cc1cc(NC(=O)Cn2nc(N3CCOCC3)c3ccccc3c2=O)ccc1Br` it is 884 s.
For `COC(=O)c1ccc(NC(=O)CN2CCc3[nH]c4c(OC)ccc(Cl)c4c(=O)c3C2)cc1`, the RP-LC retention time was 614 s.
Compound `CCc1nc(-n2cccc2)sc1C(=O)Nc1ccc(OC)c(OC)c1` registered an RP-LC retention time of 965 s.
Compound `CC(C)c1ccc(C(=O)Nc2nc3ccccc3[nH]2)cc1` registered an RP-LC retention time of 672 s.
As for `COc1ccc2c(c1)C1(CCN(C(=O)c3cccc(Cl)c3)C1)C(=O)N2` (stereo not given), the RP-LC retention time was 753 s.
`COCc1c(C(=O)O)nnn1-c1ccc(C)c(F)c1` registered an RP-LC retention time of 741 s.
On to `Cc1cccc(-c2nc(NCCCN3CCOCC3)c3ccccc3n2)c1`, for which the RP-LC retention time is 819 s.
Consider `CCOC(=O)c1cnc2nc(C)ccc2c1Nc1cccc(F)c1`, for which the RP-LC retention time stood at 689 s.
